Our source for the teicoplanin released values is US20220401619A1, “A COLLAGEN SCAFFOLD” (ROYAL COLLEGE OF SURGEONS IN IRELAND, priority 2019, published 2022).

The nature of the data set: Antibiotic release profile from scaffolds over 60 days. Format: physicochemical. From the text:
As shown in FIG. 3(A), in the dual-layer scaffold structure incorporating crosslinked and directly incorporated antibiotic produced as described above, the porous scaffold structure necessary for efficient tissue regeneration was maintained. In addition, the porosity (>98%) and mean pore size, essential for optimal proliferation and differentiation of osteoblasts during bone regeneration, were not compromised after the loading of the drug into the collagen structure. Depending on the incorporation method, different release kinetics of the antibiotic from the materials were obtained. […] At day 10, approximately 90% of the teicoplanin was released when it was directly loaded into the slurry during the CHA scaffold fabrication.

Take teicoplanin: the teicoplanin released entry is given as “approximately 90%” (day 10, directly loaded into the slurry during CHA scaffold fabrication) and “approximately 11%” (day 60, chemically attached (crosslinked) to scaffold).
